Measured values from publication PMC6513986, “Molecular basis for heat desensitization of TRPV1 ion channels” (Nature Communications, 2019).
Where two headings read alike, the source gives them in different places.

Tests used:
platypus TRPV1 (pV1) = platypus TRPV1 (pV1) (Ornithorhynchus anatinus, UniProt F7A7B4); experiment: Agonist activation, patch clamp, HEK293T; assay type: cell-based; details: for EC50_Capsaicin: Supp Table 1 data
Polar bear TRPV1 = Polar bear TRPV1 (Ursus maritimus, UniProt A0A384CG69); experiment: Agonist activation, patch clamp, HEK293T; assay type: cell-based; details: read-out: EC50_Capsaicin
pV1_mC chimera = pV1_mC chimera (Ornithorhynchus anatinus, UniProt F7A7B4); experiment: Agonist activation, patch clamp, HEK293T; assay type: cell-based, platypus / mouse; details: read-out: EC50_Capsaicin
pV1_mN chimera = pV1_mN chimera (Ornithorhynchus anatinus, UniProt F7A7B4); experiment: Agonist activation, patch clamp, HEK293T; assay type: cell-based, platypus / mouse; details: read-out: EC50_Capsaicin
mV1 CΔ30 (Glu747-Phe776) = mV1 CΔ30 (Glu747-Phe776) (Mus musculus, UniProt Q704Y3, DEL747-776); experiment: Agonist activation, patch clamp, HEK293T; assay type: cell-based; details: read-out: EC50_Capsaicin
mV1 CΔ23 (Ser777-Asp799) = mV1 CΔ23 (Ser777-Asp799) (Mus musculus, UniProt Q704Y3, DEL777-799); experiment: Agonist activation, patch clamp, HEK293T; assay type: cell-based; details: read-out: EC50_Capsaicin
mV1 CΔ28 (Ala800-Ala827) = mV1 CΔ28 (Ala800-Ala827) (Mus musculus, UniProt Q704Y3, DEL800-827); experiment: Agonist activation, patch clamp, HEK293T; assay type: cell-based; details: read-out: EC50_Capsaicin
mV1 CΔ10 (Phe830-Lys839) = mV1 CΔ10 (Phe830-Lys839) (Mus musculus, UniProt Q704Y3); experiment: Agonist activation, patch clamp, HEK293T; assay type: cell-based; details: read-out: EC50_Capsaicin
mV1 S116A = mV1 S116A (Mus musculus, UniProt Q704Y3, S117A); experiment: Agonist activation, patch clamp, HEK293T; assay type: cell-based; details: read-out: EC50_Capsaicin
mV1 F830A = mV1 F830A (Mus musculus, UniProt Q704Y3, F830A); experiment: Agonist activation, patch clamp, HEK293T; assay type: cell-based; details: read-out: EC50_Capsaicin
mV1 K831A = mV1 K831A (Mus musculus, UniProt Q704Y3, K831A); experiment: Agonist activation, patch clamp, HEK293T; assay type: cell-based; details: read-out: EC50_Capsaicin
mV1 D832A = mV1 D832A (Mus musculus, UniProt Q704Y3, D832A); experiment: Agonist activation, patch clamp, HEK293T; assay type: cell-based; details: read-out: EC50_Capsaicin
mV1 M834A = mV1 M834A (Mus musculus, UniProt Q704Y3, M834A); experiment: Agonist activation, patch clamp, HEK293T; assay type: cell-based; details: read-out: EC50_Capsaicin
mV1 E838A = mV1 E838A (Mus musculus, UniProt Q704Y3, E838A); experiment: Agonist activation, patch clamp, HEK293T; assay type: cell-based; details: read-out: EC50_Capsaicin
mV1 K839A = mV1 K839A (Mus musculus, UniProt Q704Y3, K839A); experiment: Agonist activation, patch clamp, HEK293T; assay type: cell-based; details: read-out: EC50_Capsaicin
pV1_241 (ANAP) = pV1_241 (ANAP) (Ornithorhynchus anatinus, UniProt F7A7B4); experiment: Agonist activation of ANAP-incorporated channel, patch clamp; assay type: cell-based, platypus
mV1_654 (ANAP) = mV1_654 (ANAP) (Mus musculus, UniProt Q704Y3, Y654X); experiment: as above; assay type: cell-based
[1] = test system: DRG neurons of p-trpv1 mice; experiment: Patch clamp of DRG neurons of p-trpv1 mice; assay type: cell-based, mouse; details: small diameter DRG neurons, patch clamping
Procedure: All recordings were performed at room temperature.
DRG neurons were acutely dissociated and maintained in a short-term primary culture according to procedures. Briefly, after mice were killed by CO2 inhalation and decapitated, vertebral column was opened by a dorsal approach. DRG neurons were collected using fine forceps from both sides of the spinal column and transferred into DMEM medium (GIBCO), and the spinal nerves were cut off using fine ophthalmological scissors and digested by […] (m/m, Sigma) for 20 min. Following the wash of collagenase and trypsin, DRG neurons were incubated at 37 °C in 5% CO2. Cells were used for electrophysiological experiments within the next 24 h.

mouse TRPV1 (mV1) = mouse TRPV1 (mV1) (Mus musculus, UniProt Q704Y3); details: cited from earlier work
Procedure: The heat activation threshold of pV1, at ~35 °C, is slightly higher than the body core temperature of platypus (32 °C)[17],[18] (Fig. 1b, c), again reminiscent of ot ...

TRPV1 = details: cited from earlier work

Chain of pV1_mN chimera (F7A7B4 436-842, stated change not applied): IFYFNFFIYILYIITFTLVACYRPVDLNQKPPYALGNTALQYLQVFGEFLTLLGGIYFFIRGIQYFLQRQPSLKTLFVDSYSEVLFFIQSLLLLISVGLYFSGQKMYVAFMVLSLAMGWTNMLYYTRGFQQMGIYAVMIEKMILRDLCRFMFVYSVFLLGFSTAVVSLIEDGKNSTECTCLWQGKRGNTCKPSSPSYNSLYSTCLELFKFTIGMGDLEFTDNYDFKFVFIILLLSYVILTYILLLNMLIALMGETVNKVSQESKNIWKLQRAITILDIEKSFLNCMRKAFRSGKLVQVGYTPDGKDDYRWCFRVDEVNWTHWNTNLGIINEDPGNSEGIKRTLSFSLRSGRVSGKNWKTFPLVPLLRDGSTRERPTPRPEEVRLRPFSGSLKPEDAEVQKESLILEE
Chain of pV1_mN chimera (Q704Y3 1-433 partner): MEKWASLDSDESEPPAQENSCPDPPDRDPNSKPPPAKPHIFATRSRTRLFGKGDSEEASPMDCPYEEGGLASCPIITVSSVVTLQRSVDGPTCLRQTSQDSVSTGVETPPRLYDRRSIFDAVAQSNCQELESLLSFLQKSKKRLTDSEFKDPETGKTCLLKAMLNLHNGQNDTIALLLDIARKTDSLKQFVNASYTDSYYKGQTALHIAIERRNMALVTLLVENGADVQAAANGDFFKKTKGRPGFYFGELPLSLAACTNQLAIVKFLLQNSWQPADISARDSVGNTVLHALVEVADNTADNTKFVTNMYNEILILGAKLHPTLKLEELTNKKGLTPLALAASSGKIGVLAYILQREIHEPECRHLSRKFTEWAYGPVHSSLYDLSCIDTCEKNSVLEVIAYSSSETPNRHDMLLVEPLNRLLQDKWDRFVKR
Chain of mV1 D832A (Q704Y3 whole entry D832A): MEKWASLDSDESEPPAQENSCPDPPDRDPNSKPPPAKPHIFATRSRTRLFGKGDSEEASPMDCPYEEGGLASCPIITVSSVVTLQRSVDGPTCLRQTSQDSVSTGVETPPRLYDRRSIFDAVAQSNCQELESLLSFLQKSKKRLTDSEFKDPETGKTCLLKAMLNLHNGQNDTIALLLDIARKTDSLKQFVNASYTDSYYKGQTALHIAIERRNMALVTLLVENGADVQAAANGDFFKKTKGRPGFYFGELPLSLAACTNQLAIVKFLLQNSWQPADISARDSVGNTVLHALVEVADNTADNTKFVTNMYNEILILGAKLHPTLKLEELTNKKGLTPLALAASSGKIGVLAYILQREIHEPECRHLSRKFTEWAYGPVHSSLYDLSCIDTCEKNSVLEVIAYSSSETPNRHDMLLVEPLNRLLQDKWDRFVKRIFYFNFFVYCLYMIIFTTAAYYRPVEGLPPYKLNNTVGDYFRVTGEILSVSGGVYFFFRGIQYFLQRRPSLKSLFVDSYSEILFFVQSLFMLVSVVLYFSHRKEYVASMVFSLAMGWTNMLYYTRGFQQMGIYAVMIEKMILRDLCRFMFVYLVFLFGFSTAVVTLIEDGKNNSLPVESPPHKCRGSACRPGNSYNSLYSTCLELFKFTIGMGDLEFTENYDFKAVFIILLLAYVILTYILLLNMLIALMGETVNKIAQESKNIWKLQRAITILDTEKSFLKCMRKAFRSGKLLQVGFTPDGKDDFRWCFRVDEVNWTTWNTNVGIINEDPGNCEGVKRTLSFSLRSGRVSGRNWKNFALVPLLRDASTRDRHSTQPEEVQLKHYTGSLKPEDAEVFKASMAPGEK
Chain of mV1 CΔ28 (Ala800-Ala827) (Q704Y3 with tags, fused parts or gaps DEL800-827): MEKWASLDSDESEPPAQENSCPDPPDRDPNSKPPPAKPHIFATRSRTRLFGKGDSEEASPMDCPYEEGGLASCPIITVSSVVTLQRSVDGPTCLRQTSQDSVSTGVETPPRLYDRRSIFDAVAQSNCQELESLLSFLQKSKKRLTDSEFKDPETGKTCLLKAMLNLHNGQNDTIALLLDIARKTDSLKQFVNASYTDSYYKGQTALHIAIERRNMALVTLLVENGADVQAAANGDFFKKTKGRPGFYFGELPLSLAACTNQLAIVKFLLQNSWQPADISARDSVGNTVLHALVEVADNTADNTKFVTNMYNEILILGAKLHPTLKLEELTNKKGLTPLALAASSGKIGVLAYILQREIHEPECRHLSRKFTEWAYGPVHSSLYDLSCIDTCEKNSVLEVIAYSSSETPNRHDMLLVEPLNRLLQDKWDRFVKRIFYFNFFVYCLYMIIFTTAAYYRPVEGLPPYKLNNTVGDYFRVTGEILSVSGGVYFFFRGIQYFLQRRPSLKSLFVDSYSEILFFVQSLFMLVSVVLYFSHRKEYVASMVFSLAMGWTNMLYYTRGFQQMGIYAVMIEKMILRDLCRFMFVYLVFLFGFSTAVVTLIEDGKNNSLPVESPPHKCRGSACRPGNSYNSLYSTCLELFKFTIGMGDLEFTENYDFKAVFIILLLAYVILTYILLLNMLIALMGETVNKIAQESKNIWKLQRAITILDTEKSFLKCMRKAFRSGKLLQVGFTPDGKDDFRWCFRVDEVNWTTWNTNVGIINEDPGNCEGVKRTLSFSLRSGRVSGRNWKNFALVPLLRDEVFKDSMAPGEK
Chain of mV1 CΔ10 (Phe830-Lys839) (Q704Y3 1-829, stated change not applied): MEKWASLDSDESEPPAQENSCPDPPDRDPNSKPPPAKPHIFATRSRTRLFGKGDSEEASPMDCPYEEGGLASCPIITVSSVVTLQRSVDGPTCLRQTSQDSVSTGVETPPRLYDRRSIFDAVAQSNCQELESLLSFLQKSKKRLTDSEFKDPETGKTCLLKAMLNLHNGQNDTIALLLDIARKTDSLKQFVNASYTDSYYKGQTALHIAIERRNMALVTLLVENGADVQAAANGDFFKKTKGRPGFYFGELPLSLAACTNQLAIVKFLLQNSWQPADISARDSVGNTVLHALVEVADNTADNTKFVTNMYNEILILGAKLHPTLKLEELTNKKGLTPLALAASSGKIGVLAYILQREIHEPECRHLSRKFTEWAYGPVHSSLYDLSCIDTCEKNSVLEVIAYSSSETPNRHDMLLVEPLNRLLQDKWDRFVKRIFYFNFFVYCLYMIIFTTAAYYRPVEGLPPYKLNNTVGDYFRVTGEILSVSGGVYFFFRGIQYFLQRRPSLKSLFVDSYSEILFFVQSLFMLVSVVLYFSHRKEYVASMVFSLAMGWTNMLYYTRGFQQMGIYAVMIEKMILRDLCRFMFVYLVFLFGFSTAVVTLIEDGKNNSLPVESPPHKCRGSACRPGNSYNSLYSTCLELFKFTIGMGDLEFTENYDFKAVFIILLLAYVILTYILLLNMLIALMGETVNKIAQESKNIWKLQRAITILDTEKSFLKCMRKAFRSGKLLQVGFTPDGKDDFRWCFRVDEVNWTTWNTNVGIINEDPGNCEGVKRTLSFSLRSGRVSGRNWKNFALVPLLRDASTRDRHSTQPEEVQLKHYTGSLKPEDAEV
Chain of pV1_241 (ANAP) (F7A7B4 1-842): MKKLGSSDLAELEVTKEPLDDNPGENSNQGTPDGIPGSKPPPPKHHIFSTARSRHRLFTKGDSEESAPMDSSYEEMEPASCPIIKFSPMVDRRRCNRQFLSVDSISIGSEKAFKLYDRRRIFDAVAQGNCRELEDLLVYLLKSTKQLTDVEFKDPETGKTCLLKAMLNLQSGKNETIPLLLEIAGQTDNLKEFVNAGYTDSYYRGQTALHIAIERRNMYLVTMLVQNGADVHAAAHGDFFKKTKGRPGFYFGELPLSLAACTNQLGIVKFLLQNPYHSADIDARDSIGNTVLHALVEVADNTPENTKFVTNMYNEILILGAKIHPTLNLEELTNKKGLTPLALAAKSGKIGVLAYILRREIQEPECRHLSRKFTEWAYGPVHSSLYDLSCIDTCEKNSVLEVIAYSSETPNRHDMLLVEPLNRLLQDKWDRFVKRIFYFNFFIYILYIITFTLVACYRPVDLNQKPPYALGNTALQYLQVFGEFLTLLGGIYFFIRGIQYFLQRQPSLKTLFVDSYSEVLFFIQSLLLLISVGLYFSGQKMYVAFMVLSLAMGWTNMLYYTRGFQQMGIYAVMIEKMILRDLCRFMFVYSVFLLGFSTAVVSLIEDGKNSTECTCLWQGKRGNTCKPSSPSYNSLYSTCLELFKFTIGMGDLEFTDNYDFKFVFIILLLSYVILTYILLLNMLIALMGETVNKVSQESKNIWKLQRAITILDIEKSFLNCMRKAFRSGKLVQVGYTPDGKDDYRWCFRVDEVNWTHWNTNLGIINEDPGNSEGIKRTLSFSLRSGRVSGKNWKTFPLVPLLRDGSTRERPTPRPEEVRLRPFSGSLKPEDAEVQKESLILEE
Chain of platypus TRPV1 (pV1) (F7A7B4 1-842): as above
Chain of mV1 K831A (Q704Y3 whole entry K831A): as the sequence (Q704Y3 whole entry D832A) above, with K831A, A832D counted along it
Chain of mV1 M834A (Q704Y3 whole entry M834A): as the sequence (Q704Y3 whole entry D832A) above, with A832D, M834A counted along it
Chain of mV1 S116A (Q704Y3 whole entry S117A): as the sequence (Q704Y3 whole entry D832A) above, with S117A, A832D counted along it
Chain of mV1 F830A (Q704Y3 whole entry F830A): as the sequence (Q704Y3 whole entry D832A) above, with F830A, A832D counted along it
Chain of mV1 E838A (Q704Y3 whole entry E838A): as the sequence (Q704Y3 whole entry D832A) above, with A832D, E838A counted along it
Chain of mV1 K839A (Q704Y3 whole entry K839A): as the sequence (Q704Y3 whole entry D832A) above, with A832D, K839A counted along it
Chain of mouse TRPV1 (mV1) (Q704Y3 whole entry): as the sequence (Q704Y3 whole entry D832A) above, with A832D counted along it

COc1cc(CNC(=O)CCCC/C=C/C(C)C)ccc1O [Capsaicin, capsaicin]
EC50_Capsaicin (platypus TRPV1 (pV1); replicate 1): 367 nM
EC50_Capsaicin (platypus TRPV1 (pV1); replicate 2): 246 nM
EC50_Capsaicin (platypus TRPV1 (pV1); replicate 4): 271 nM
EC50_Capsaicin (platypus TRPV1 (pV1); replicate 5): 368 nM
activation of pV1 by capsaicin (platypus TRPV1 (pV1); whole-cell, 10 μM): currents elicited
EC50 (Polar bear TRPV1; mean ± s.e.m., n = 3): 313 nM
EC50 (Polar bear TRPV1; replicate 1): 262 nM
EC50 (Polar bear TRPV1; replicate 2): 336 nM
EC50 (Polar bear TRPV1; replicate 3): 341 nM
EC50 (pV1_mC chimera; mean ± s.e.m., n = 6): 310 nM
EC50 (pV1_mC chimera; replicate 3): 388 nM
EC50 (pV1_mC chimera; replicate 4): 257 nM
EC50 (pV1_mC chimera; replicate 5): 354 nM
EC50 (pV1_mC chimera; replicate 6): 300 nM
EC50 (pV1_mN chimera; mean ± s.e.m., n = 6): 313 nM
EC50 (pV1_mN chimera; replicate 2): 294 nM
EC50 (pV1_mN chimera; replicate 3): 360 nM
EC50 (pV1_mN chimera; replicate 5): 279 nM
EC50 (mV1 CΔ30 (Glu747-Phe776); mean ± s.e.m., n = 5): 372 nM
EC50 (mV1 CΔ30 (Glu747-Phe776); replicate 1): 252 nM
EC50 (mV1 CΔ30 (Glu747-Phe776); replicate 2): 260 nM
EC50 (mV1 CΔ30 (Glu747-Phe776); replicate 3): 424 nM
EC50 (mV1 CΔ30 (Glu747-Phe776); replicate 4): 463 nM
EC50 (mV1 CΔ30 (Glu747-Phe776); replicate 5): 461 nM
EC50 (mV1 CΔ23 (Ser777-Asp799); mean ± s.e.m., n = 3): 398 nM
EC50 (mV1 CΔ23 (Ser777-Asp799); replicate 1): 320 nM
EC50 (mV1 CΔ23 (Ser777-Asp799); replicate 2): 353 nM
EC50 (mV1 CΔ23 (Ser777-Asp799); replicate 3): 521 nM
EC50 (mV1 CΔ28 (Ala800-Ala827); mean ± s.e.m., n = 3): 343 nM
EC50 (mV1 CΔ28 (Ala800-Ala827); replicate 1): 256 nM
EC50 (mV1 CΔ28 (Ala800-Ala827); replicate 2): 365 nM
EC50 (mV1 CΔ28 (Ala800-Ala827); replicate 3): 408 nM
EC50 (mV1 CΔ10 (Phe830-Lys839); mean ± s.e.m., n = 6): 354 nM
EC50 (mV1 CΔ10 (Phe830-Lys839); replicate 1): 215 nM
EC50 (mV1 CΔ10 (Phe830-Lys839); replicate 3): 313 nM
EC50 (mV1 CΔ10 (Phe830-Lys839); replicate 4): 407 nM
EC50 (mV1 CΔ10 (Phe830-Lys839); replicate 5): 457 nM
EC50 (mV1 CΔ10 (Phe830-Lys839); replicate 6): 463 nM
EC50 (mV1 S116A; mean ± s.e.m., n = 3): 186 nM
EC50 (mV1 S116A; replicate 1): 191 nM
EC50 (mV1 S116A; replicate 2): 161 nM
EC50 (mV1 S116A; replicate 3): 206 nM
EC50 (mV1 F830A; mean ± s.e.m., n = 3): 338 nM
EC50 (mV1 F830A; replicate 1): 286 nM
EC50 (mV1 F830A; replicate 2): 398 nM
EC50 (mV1 F830A; replicate 3): 330 nM
EC50 (mV1 K831A; mean ± s.e.m., n = 3): 354 nM
EC50 (mV1 K831A; replicate 1): 417 nM
EC50 (mV1 K831A; replicate 2): 355 nM
EC50 (mV1 K831A; replicate 3): 290 nM
EC50 (mV1 D832A; mean ± s.e.m., n = 3): 361 nM
EC50 (mV1 D832A; replicate 1): 372 nM
EC50 (mV1 D832A; replicate 2): 282 nM
EC50 (mV1 D832A; replicate 3): 429 nM
EC50 (mV1 M834A; mean ± s.e.m., n = 3): 329 ± 23 nM
EC50 (mV1 M834A; replicate 1): 280 nM
EC50 (mV1 M834A; replicate 2): 378 nM
EC50 (mV1 M834A; replicate 3): 329 nM
EC50 (mV1 E838A; mean ± s.e.m., n = 3): 565 nM
EC50 (mV1 E838A; replicate 1): 660 nM
EC50 (mV1 E838A; replicate 2): 597 nM
EC50 (mV1 E838A; replicate 3): 438 nM
EC50 (mV1 K839A; mean ± s.e.m., n = 3): 293 nM
EC50 (mV1 K839A; replicate 1): 268 nM
EC50 (mV1 K839A; replicate 2): 292 nM
EC50_Capsaicin (pV1_241 (ANAP); replicate 3): 288 nM
EC50_Capsaicin (pV1_241 (ANAP); replicate 5): 322 nM
EC50_Capsaicin (pV1_241 (ANAP); replicate 6): 342 nM
EC50 (mV1_654 (ANAP)): 304 nM
EC50_Capsaicin (mV1_654 (ANAP); replicate 1): 324 nM
EC50_Capsaicin (mV1_654 (ANAP); replicate 2): 298 nM
EC50_Capsaicin (mV1_654 (ANAP); replicate 3): 284 nM
EC50_Capsaicin (mV1_654 (ANAP); replicate 4): 310 nM
EC50_Capsaicin (mV1_654 (ANAP); replicate 5): 267 nM
EC50_Capsaicin (mV1_654 (ANAP); replicate 6): 341 nM
response to capsaicin [1]: well maintained
capsaicin sensitivity of heat-desensitized channels (mouse TRPV1 (mV1)): less sensitive
effect of capsaicin administration (TRPV1): a burning sensation and acute drop in body core temperature (hypothermia)
